# Molecular target: T1, Glutamine--fructose-6-phosphate aminotransferase [isomerizing] (Escherichia coli (strain K12), UniProt P17169)
# T1 sequence (P17169 whole entry): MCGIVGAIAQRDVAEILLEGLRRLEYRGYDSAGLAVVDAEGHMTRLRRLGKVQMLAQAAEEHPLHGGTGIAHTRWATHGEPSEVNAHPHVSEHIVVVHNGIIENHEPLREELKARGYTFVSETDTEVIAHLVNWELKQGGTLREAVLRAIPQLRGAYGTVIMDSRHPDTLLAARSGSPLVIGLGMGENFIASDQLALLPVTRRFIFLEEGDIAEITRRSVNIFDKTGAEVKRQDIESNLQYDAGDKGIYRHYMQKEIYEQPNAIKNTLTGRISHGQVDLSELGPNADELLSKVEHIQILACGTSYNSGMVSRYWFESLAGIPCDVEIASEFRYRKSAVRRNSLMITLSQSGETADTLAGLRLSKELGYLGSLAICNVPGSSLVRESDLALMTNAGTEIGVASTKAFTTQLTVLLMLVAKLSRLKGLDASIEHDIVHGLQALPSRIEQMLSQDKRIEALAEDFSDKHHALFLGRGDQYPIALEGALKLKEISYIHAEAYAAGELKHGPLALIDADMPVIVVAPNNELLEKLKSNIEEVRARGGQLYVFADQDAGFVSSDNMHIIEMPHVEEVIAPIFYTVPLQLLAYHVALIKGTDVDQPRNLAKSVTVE
row,Compound,Ki
1,COC(=O)/C=C/C(=O)NC[C@H](N)C(=O)O [(2S)-2-azaniumyl-3-[[(E)-4-methoxy-4-oxobut-2-enoyl]amino]propanoate],0.35 µM
2,N[C@@H](CNC(=O)/C=C/C(=O)O)C(=O)O [(E)-4-[[(2S)-2-azaniumyl-2-carboxylatoethyl]amino]-4-oxobut-2-enoate],55.1 µM
3,"N#[N+][CH-]C(=O)CC[C@H](N)C(=O)NCC(=O)O [(Z,5S)-5-amino-6-(carboxymethylamino)-1-diazonio-6-oxohex-1-en-2-olate]",1.4 µM
